Reference: article PMC10222323, “Novel Biotinylated Cu(II)-Phenanthroline Complexes: 2D and 3D Cytotoxic Activity and Mechanistic Insight” (Molecules, 2023)
Where two headings read alike, the source gives them in different places.

Legend:
[1] = test system: MDA-MB-231 (breast) cancer cells; assay: MTT cytotoxicity test, 72 h, MDA-MB-231; type: cell-based, human
Method: (§1) The in vitro anticancer potential of the newly developed complexes and of the ligands has been tested on six different cancer cell lines including PSN-1 (pancreatic), HCT-15 (colorectal with low sensitivity for cisplatin), 2008 (ovarian), A431 (cervical), MDA-MB-231 (breast), and U1285 (lung) cancer cells. For comparison purposes, cisplatin efficacy was assessed under the same experimental conditions.
(§2) Tested compounds were dissolved in DMSO and added to the cell-growth medium to a final solvent concentration of 0.5%, which is well reported to not have cytotoxic effects on cell viability. Cisplatin (Sigma Chemical Co., St. Louis, MO, USA) was dissolved in a physiologic solution (0.9% sodium chloride).
(§3) Human colon (HCT-15), pancreatic (PSN-1), and breast (MDA-MB-231) carcinoma-cell lines were obtained from the American Type Culture Collection (ATCC, Rockville, MD). Human cervical carcinoma (A431) cells were kindly provided by Prof. F. Zunino (Division of Experimental Oncology B, Istituto Nazionale dei Tumori, Milan). Human ovarian carcinoma (2008) cells and their cisplatin-resistant counterpart (C13*) were kindly provided by Prof. G. Marverti (Dipartimento di Scienze Biomediche, Università di Modena University, Italy). Cell lines were cultured in RPMI-1640 or DMEM medium (Euroclone) added with 10% fetal calf serum (Euroclone, Milan, Italy), antibiotics (50 units per mL penicillin, and 50 μg mL^−1 streptomycin), and 2 mM L-glutamine.
(§4) The growth inhibitory effect toward the tumour cell lines was evaluated by the MTT test as previously described.

[2] = test system: HCT-15 (colorectal with low sensitivity for cisplatin) cancer cells; assay: MTT cytotoxicity test, 72 h, HCT-15; type: cell-based, human
Method: as §1, §2, §3, §4

[3] = test system: U1285 (lung) cancer cells; assay: MTT cytotoxicity test, 72 h, U1285; type: cell-based, human; details: mean ± S.D., read-out: IC50 U-1285
Method: as §1, §2, §4

[4] = test system: PSN-1 (pancreatic) cancer cells; assay: MTT cytotoxicity test, 72 h, PSN-1; type: cell-based, human
Method: as §1, §2, §3, §4

[5] = test system: A431 (cervical) cancer cells; assay: MTT cytotoxicity test, 72 h, A431; type: cell-based, human
Method: as §1, §2, §3, §4

[6] = test system: six different cancer cell lines; assay: MTT cytotoxicity, average over the cancer cell line panel; type: cell-based, human; details: for cytotoxic activity of ligands (in words): compared with the complexes
Method: as §1
Due to note, all the complexes were very effective in the MDA-MB-231 cell line, which overexpress the SMVT (sodium-dependent multivitamin transporter) receptor, which is well known to be involved in the intracellular translocation of biotin [24].
as §4

[7] = test system: 2008 (ovarian) cancer cells; assay: MTT cytotoxicity test, 72 h, 2008; type: cell-based, human
Method: as §1
(§5) Table 2 reported the IC50 values of the complexes against two types of ovarian cancer cells, one sensitive (2008) and one resistant to cisplatin (C13*). […] The resistance factor (R.F., the ratio among IC50 values obtained in resistant C13*cells and those calculated in the sensitive 2008 ones) calculated for all tested complexes resulted to be ≤2 (R.F. for cisplatin 11.1), strongly confirming the ability of the complexes to bypass cisplatin resistance.
as §2, §3, §4

noncancerous CHO cells = assay: Cytotoxicity against noncancerous CHO cells; type: cell-based; details: for IC50: noncancerous cells; for S.I. (selectivity index): average IC50 toward normal cells divided by the average IC50 for the malignant cells
Description: In order to preliminarily assess the possible toxic effect on noncancerous cells, we also evaluated the cytotoxic potential of the newly developed Cu(II) complexes against noncancerous CHO cells (Table 3). For all tested complexes, calculated IC50 values were higher than those obtained (on average) against tumour cells, thus indicating for this class of metal complexes a slightly preferential cytotoxicity against cancer cells, as attested by the calculated selectivity index values (SI = the quotient of the average IC50 toward normal cells divided by the average IC50 for the malignant cells).
as §4

[8] = test system: human pancreatic PSN-1 cancer-cell spheroids; assay: 3D spheroid cytotoxicity, APH assay, 72 h; type: cell-based; details: 3D spheroids, 72 h, APH test
Method: The cancer spheroids were treated with tested complexes for 72 h, and the cell viability was estimated by means of a modified acid phosphatase (APH) assay.
Spheroid cultures were performed by seeding 2.5 × 10^3 PSN-1 cancer cells/well in spheroid-suitable tissue culture untreated 96-well plates (Greiner Bio-one, Kremsmünster, Austria) in RPMI-1640 cell culture medium without phenol red (Sigma Chemical Co., St. Louis, MO, USA) containing 10% fetal calf serum and supplemented with 20% methyl cellulose stock solution.
An established APH-modified assay was used to detect the cytotoxicity profile in 3D spheroids, as previously described. IC50 values were calculated using a 4-PL model.

[9] = test system: C13* ovarian cancer cells (cisplatin-resistant); assay: MTT cytotoxicity test, 72 h, cisplatin-resistant C13*; type: cell-based, human; details: for R.F. (resistance factor): RF = IC50 resistant (C13*)/IC50 parental cells (2008); for IC50: cisplatin-resistant cells, 72 h, MTT test
Method: as §5, §2, §3, §4

DNA [10] = assay: Ethidium bromide displacement assay; type: binding; details: EtBr displacement
Method: A number of research studies were performed on the elucidation of the mechanism of action of copper complexes in the past three decades. Despite several different molecular targets having been proposed for copper(II) complexes, DNA still represents one of the most substantiated when considering diamine ligands. On this basis, we thought it of interest to evaluate the ability of tested complexes to interact with DNA, both at molecular and cellular levels. An ethidium bromide (EB) displacement assay was used to understand if the complexes interact with the DNA at a molecular level. […] These values are very much in line with what was previously seen by us and also very close to the reported literature values of 2.60 × 10^7 M(bp^−1) and 3.04 × 10^7 M(bp^−1) for the bis complexes of [Cu(phen)2]^2+ and [Cu(DPQ)2]^2+ reported by Molphy et al.. […] It is largely possible that the presence of the 1,10-phenanthroline scaffold on compounds 3 and 4 is contributing to the increased displacement of the EtBr (probably by intercalation) and leading to a more noticeable decrease in the fluorescence.
EtBr displacement assays were performed in 10 mM phosphate buffer solution (pH 7.4) as described by Boger et al. The binding values were calculated using the % relative decrease of fluorescence at 50% and the equation below. (1) EEBEtBr/compound50%FI

DNA [11] = test system: DNA; set-up: method as in earlier work; details: reported literature values; ref 26 (Molphy et al.); cited from earlier work
MDA-MB-231 cells = details: 24 h, 2 and 3 μM
Method: The ability to enter cancer cells is a very important factor to determine the biological activity of metal-based compounds. Consequently, with the aim of correlating the antiproliferative activity elicited by all the newly developed complexes and their accumulation profiles into cancer cells, the Cu content was evaluated in the SMVT overexpressing MDA-MB-231 cells. Uptake profiles were determined by treating cancer cells for 24 h with two concentrations (2 and 3 μM) of tested complexes.
MDA-MB-231 cells (2.5 × 10^6) were seeded in 75 cm^2 flasks in a growth medium (20 mL). Following 24 h, cells were treated for 24 h with tested complexes and samples processed as previously described.
Figure 2 Cellular uptake of complexes 1–4 in drug-treated MDA-MB-231 human breast cancer cells. Cells were incubated for 24 h with […] of tested complexes. The amount of cellular Cu was estimated by GF-AAS. Error bars are S.D.

[12] = Homo sapiens, Table 1, mean ± S.D.
[13] = Table 2, cisplatin-sensitive parental cells

O=C(CCCC[C@@H]1SC[C@@H]2NC(=O)N[C@@H]21)NN=C1c2cccnc2-c2ncccc21 [A, Biotin-Dafone]
IC50 ([1]; Homo sapiens, MDA-MB-231, mean ± S.D.): > 50 µM
IC50 ([2]; Homo sapiens, HCT-15, mean ± S.D.): > 50 µM
IC50 ([3]; Homo sapiens): > 50 µM
IC50 ([4]; Homo sapiens, PSN1, mean ± S.D.): > 50 µM
IC50 ([5]; Homo sapiens, A-431, mean ± S.D.): > 50 µM
cytotoxic activity of ligands (in words) [6]: did not show activity comparable to the complexes
IC50 [7, 12]: > 50 µM

O=C(CCCC[C@@H]1SC[C@@H]2NC(=O)N[C@@H]21)N/N=C1\C(=O)c2cccnc2-c2ncccc21 [B, Biotin-Phen]
IC50 ([3]; Homo sapiens): 28.1 ± 2.77 µM
cytotoxic activity of ligands (in words) [6]: did not show activity comparable to the complexes
IC50 [7, 12]: 21.5 ± 0.72 µM

N.N.[Cl][Pt][Cl] [Cisplatin, cisplatin, reference compound]
IC50 (noncancerous CHO cells): 24.1 ± 3 µM
IC50 ([1]; mean ± S.D.): 30.5 ± 2.6 µM
IC50 ([2]; mean ± S.D.): 13.9 ± 1.7 µM
IC50 [3]: 2.1 ± 0.9 µM
IC50 [8]: 52.6 ± 3.8 µM
IC50 ([4]; mean ± S.D.): 12.1 ± 2.9 µM
IC50 ([5]; mean ± S.D.): 2.1 ± 0.9 µM
R.F. (resistance factor) [9]: 11.1
IC50 [9]: 24.1 ± 3 µM
IC50 ([7]; Table 1, mean ± S.D.): 2.2 ± 1.4 µM
IC50 [7, 13]: 2.2 ± 1.4 µM

O=C(CCCC[C@@H]1SC[C@@H]2NC(=O)N[C@@H]21)NN=C1c2ccc[n+]3c2-c2c1ccc[n+]2[Cu-2]3([Cl])[Cl] [Complex 1, [Cu(dafone-biotin)Cl2]]
S.I. (selectivity index) (noncancerous CHO cells): 3.9
IC50 (noncancerous CHO cells): 13.1 ± 0.9 µM
IC50 ([1]; mean ± S.D.): 2.1 ± 0.4 µM
IC50 ([2]; mean ± S.D.): 0.4 ± 0.1 µM
IC50 [3]: 5.9 ± 0.5 µM
fluorescence quenching (in words) (DNA [10]): very small quenching
IC50 ([4]; mean ± S.D.): 0.6 ± 0.2 µM
IC50 ([5]; mean ± S.D.): 7.2 ± 0.6 µM
IC50 ([6]; 2D assays, average over the cancer cell lines of Table 1): 3.4 µM
R.F. (resistance factor) [9]: 0.4
IC50 [9]: 2 ± 0.8 µM
IC50 ([7]; Table 1, mean ± S.D.): 4.5 ± 0.6 µM
IC50 [7, 13]: 4.5 ± 0.6 µM

c1cc2c3nccnc3c3ccc[n+]4c3c2[n+](c1)[Cu-2]41[n+]2cccc3c4nccnc4c4ccc[n+]1c4c32 [[Cu(DPQ)2]^2+]
binding constant (literature) (DNA [11]): 3.04 × 10^7 M(bp^−1)

[Cu+2].c1cnc2c(c1)ccc1cccnc12.c1cnc2c(c1)ccc1cccnc12 [[Cu(phen)2]^2+, copper bis-phenanthroline [Cu(phen)2]^2+]
binding constant (literature) (DNA [11]): 2.60 × 10^7 M(bp^−1)

[Cu(phen)(dafone-biotin)](NO3)2 [Complex 3]
S.I. (selectivity index) (noncancerous CHO cells): 1.1
IC50 (noncancerous CHO cells): 2.1 ± 0.8 µM
IC50 ([1]; mean ± S.D.): 1.4 ± 0.4 µM
IC50 ([2]; mean ± S.D.): 1.8 ± 0.2 µM
IC50 [3]: 3 ± 0.3 µM
fluorescence quenching (in words) (DNA [10]): highest quenching values
relative fluorescence decrease (DNA [10]): greater than 50%
binding constant (DNA [10]; 10 mM phosphate buffer pH 7.4, from 50% fluorescence decrease): 2.53 × 10^7 M(bp^−1)
IC50 ([4]; mean ± S.D.): 0.7 ± 0.2 µM
IC50 ([5]; mean ± S.D.): 0.9 ± 0.2 µM
Cu intracellular content (uptake) (MDA-MB-231 cells): most internalised into cancer cells
R.F. (resistance factor) [9]: 0.7
IC50 [9]: 2.5 ± 0.2 µM
IC50 ([7]; Table 1, mean ± S.D.): 3.3 ± 0.1 µM
IC50 [7, 13]: 3.3 ± 0.1 µM
